Experimental data as given in patent US20250059187A1, “COVALENTLY BINDING INHIBITORS OF G12S, G12D AND/OR G12E MUTANTS OF K-RAS GTPASE” (The Regents of the University of California, priority 2021, published 2025).

Experiments:
[1] = tested on: A549 cells (homozygous KRAS p.G12S mutation); assay: Immunoblot and Raf-RBD pulldown in A549 cells; assay type: cell-based; conditions: 10 μM, 2 h
Method: Cells were passed for at least two generations after cryorecovery before they were used for assays. All cell lines were tested mycoplasma negative using MycoAlert™ Mycoplasma Detection Kit (Lonza). When indicated, cells were treated with drugs at 40-60% confluency at a final DMSO concentration of 1%. At the end of treatment period, cells were placed on ice. Unless otherwise indicated, adherent cells were washed once with ice-cold PBS (1 mL), scraped with a spatula, and pelleted by centrifugation (500×g, 5 min). Suspension cells were pelleted by centrifugation (500×g, 5 min), washed with 1 mL ice-cold PBS, and pelleted again. Cells were lysed in RIPA buffer supplemented with protease and phosphatase inhibitors (cOmplete and phosSTOP, Roche) on ice for 10 min. For RBD pulldown experiments, cells were lysed in Co-IP Lysis Buffer in lieu of RIPA buffer. Lysates were clarified by high-speed centrifugation (19,000×g, 10 min). Concentrations of lysates were determined with protein BCA assay (Thermo Fisher) and adjusted to 2 mg/mL with additional RIPA buffer (or Co-IP Lysis Buffer). Samples were mixed with 5×SDS Loading Dye and heated at 95° C. for 5 min.
Ras·GTP pulldown was performed with GST-RBD agarose beads (Cytoskeleton, 10 μL, 30 μg loaded GST-RBD). 50 μL lysate (2 mg/mL) was mixed with 10 μL beads, and the suspension was incubated at 4° C. for 1 h with constant end-to-end rotation. The beads were settled by centrifugation (500×g, 5 min) and the supernatant was carefully removed. The beads were washed with 2×500 μL ice-cold Co-IP wash buffer. Bound protein was eluted with 10 μL 2×SDS Loading Buffer.
Membranes were blocked in 5% BSA-TBST for 1 h at 23° C. […] After washing the membrane three times with TBST (5 min each wash), secondary antibodies (goat anti-rabbit IgG-IRDye 800 and goat anti-mouse IgG-IRDye 680, Li-COR) were added as solutions in 5% skim milk-TBST at the dilutions recommended by the manufacturer. Secondary antibody binding was allowed to proceed for 1 h at 23° C. The membrane was washed three times with TBST (5 min each wash) and imaged on a Li-COR Odyssey fluorescence imager.

K-Ras(G12S) = K-Ras(G12S) (Homo sapiens, UniProt P01116, G12S); assay: Covalent modification of recombinant K-Ras(G12S) by whole-protein mass spectrometry; assay type: binding; set-up: human K-Ras (G12S, aa 1-169); 6xHis tag + TEV cleavage site (N, cleaved yes); made in house; host or cells: E. coli BL21(DE3); conditions: 23° C.; for covalent reaction with K-Ras(G12S)·GDP: 10 μM compound; for % covalent modification of K-Ras G12S: 24-h incubation, 100 μM compound, pH 7.5
Method: (§1) Test compounds were prepared as 100× stock solutions in DMSO. K-Ras proteins were diluted with SEC Buffer (20 mM HEPES 7.5, 150 mM NaCl, 1 mM MgCl2) to 400 nM or 1 μM. In a typical reaction, 0.5 μL 100× compound stock was mixed with 50 μL diluted K-Ras protein, and the resulting mixture was incubated for the desired amount of time. The extent of modification was assessed by electrospray mass spectrometry using a Waters Xevo G2-XS system equipped with an Acquity UPLC BEH C4 1.7 μm column. […] For kinetic measurements, a 2× compound solution was first prepared in SEC Buffer, which was then mixed with 400 nM K-Ras(G12S) protein at 1:1 (v/v) ratio. Injection time stamps were used to calculate elapsed time.
as §1, with “K-Ras(G12D)” for “K-Ras(G12S)”

wild type K-Ras [2] = molecular target: T1, wild type K-Ras (Homo sapiens, UniProt P01116); assay: Covalent modification of test protein after incubation with compound; assay type: binding; conditions: 24-h incubation with 100 μM compound at 23° C. at pH 7.5
T1 construct: human K-Ras (wildtype, aa 1-169); 6xHis tag + TEV cleavage site (N, cleaved yes); made in house; host or cells: E. coli BL21(DE3)

wild type K-Ras [3] = molecular target: T1, wild type K-Ras; assay: Covalent modification of recombinant wild-type K-Ras by whole-protein mass spectrometry; assay type: binding; conditions: 24-h incubation, 100 μM compound, 23° C., pH 7.5
Method: (§2) Test compounds were prepared as 100× stock solutions in DMSO. K-Ras proteins were diluted with SEC Buffer (20 mM HEPES 7.5, 150 mM NaCl, 1 mM MgCl2) to 400 nM or 1 μM. In a typical reaction, 0.5 μL 100× compound stock was mixed with 50 μL diluted K-Ras protein, and the resulting mixture was incubated for the desired amount of time. The extent of modification was assessed by electrospray mass spectrometry using a Waters Xevo G2-XS system equipped with an Acquity UPLC BEH C4 1.7 μm column. The mobile phase was a linear gradient of 5-95% acetonitrile/water+0.05% formic acid. For kinetic measurements, a 2× compound solution was first prepared in SEC Buffer, which was then mixed with 400 nM K-Ras(G12S) protein at 1:1 (v/v) ratio. Injection time stamps were used to calculate elapsed time.
as §2, with “K-Ras(G12D)” for “K-Ras(G12S)”

K-Ras G12D [4] = molecular target: T2, K-Ras G12D (Homo sapiens, UniProt P01116, G12D); assay: Covalent modification of test protein after incubation with compound; assay type: binding; conditions: 24-h incubation with 100 μM compound at 23° C. at pH 7.5
T2 construct: human K-Ras (G12D, aa 1-169); 6xHis tag + TEV cleavage site (N, cleaved yes); made in house; host or cells: E. coli BL21(DE3)

K-Ras G12E = molecular target: T3, K-Ras G12E (Homo sapiens, UniProt P01116, G12E); assay: as above; assay type: binding; conditions: 24-h incubation with 100 μM compound at 23° C. at pH 7.5
T3 construct: human K-Ras (G12E, aa 1-169); 6xHis tag + TEV cleavage site (N, cleaved yes); made in house; host or cells: E. coli BL21(DE3)

BaF3/K-Ras(G12D) cells = assay: Growth inhibition of BaF3/K-Ras(G12D) cells; assay type: cell-based, murine; conditions: Mus musculus, 95% CI: 3.1-6.3 μM, read-out: IC50, BaF3/K-Ras(G12D) proliferation
Method: Cells were seeded into 96-well white flat bottom plates (1,000 cells/well) (Corning) and incubated overnight. Cells were treated with the indicated compounds in a nine-point threefold dilution series (100 μL final volume) and incubated for 72 h. Cell viability was assessed using a commercial CellTiter-Glo (CTG) luminescence-based assay (Promega). Briefly, the 96-well plates were equilibrated to room temperature before the addition of diluted CTG reagent […] (1:4 CTG reagent:PBS). Plates were placed on an orbital shaker for 30 min before recording luminescence using a Spark 20M (Tecan) plate reader.

K-Ras G12D [5] = molecular target: T2, K-Ras G12D; assay: Covalent modification of recombinant K-Ras(G12D) by whole-protein mass spectrometry; assay type: binding
Method: as §2, with “K-Ras(G12D)” for “K-Ras(G12S)”

[6] = Stability of substituted β-lactones in PBS 7.4 at 23° C.; assay type: physicochemical; conditions: PBS, pH 7.4, read-out: half-life (hydrolysis) (converted)
K-Ras G12D [7] = molecular target: T2, K-Ras G12D; assay: Differential scanning fluorimetry of K-Ras(G12D) and its covalent adducts; assay type: binding
Method: The protein of interest was diluted with SEC Buffer [20 mM HEPES 7.5, 150 mM NaCl, 1 mM MgCl2] to 8 μM. This solution was dispensed into wells of a white 96-well PCR plate in triplicate (25 μL/well). Fluorescence was measured at 0.5-° C. temperature intervals every 30 s from 25° C. to 95° C. on a Bio-Rad CFX96 qPCR system using the FRET setting. Each data set was normalized to the highest fluorescence and the normalized fluorescence reading was plotted against temperature in GraphPad Prism 8.0. Tm values were determined as the temperature(s) corresponding to the maximum(ma) of the first derivative of the curve.

| Compound | effects on phospho-Akt, phospho-Erk and Ras·GTP levels [1] | covalent reaction with K-Ras(G12S)·GDP (K-Ras(G12S)) | % covalent modification of wild type K-Ras (wild type K-Ras [2]) [%] | % covalent modification of wild type K-Ras (wild type K-Ras [3]) [%] | % covalent modification of K-Ras G12S (K-Ras(G12S)) [%] | % covalent modification of K-Ras G12D (K-Ras G12D [4]) [%] | % covalent modification of K-Ras G12E (K-Ras G12E) [%] | IC50 (BaF3/K-Ras(G12D) cells) [µM] | reactivity with K-Ras(G12D)·GDP (K-Ras G12D [5]) | half-life [6] [h] | thermal stabilization of K-Ras(G12D)·GDP (K-Ras G12D [7]; GDP state) | thermal stabilization of K-Ras(G12D)·GppNHp (K-Ras G12D [7]; GppNHp state) |
| --- | --- | --- | --- | --- | --- | --- | --- | --- | --- | --- | --- | --- |
| CN1CCC[C@H]1COc1nc2c(c(N3CC[C@H]4C(=O)O[C@H]4C3)n1)CCN(c1cccc3cccc(Cl)c13)C2 [3′] | neither adagrasib nor 3′ had any observable effects on these markers | enhanced reaction | – | – | – | – | – | – | – | – | – | – |
| O=C1O[C@H]2CN(c3nc(OCC45CCCN4CCC5)nc4c3CCN(c3cccc5cccc(Cl)c35)C4)CC[C@@H]12 [4′] | decreased the level of Ras·GTP | enhanced reaction | 0 | 0 | 100 | 0 | 0 | – | – | – | – | – |
| CC(C)[C@H]1C(=O)O[C@@H]1C(=O)N1[C@@H]2CC[C@H]1CN(c1nc(OCC34CCCN3CCC4)nc3c(F)c(-c4cccc5cccc(Cl)c45)ncc13)C2 [(2S, 3R)-4] | – | – | – | – | – | – | – | 4.4 | did not show any detectable reactivity | – | – | – |
| O=C1C[C@H](C(=O)N2[C@@H]3CC[C@H]2CN(c2nc(OCC45CCCN4CCC5)nc4c(F)c(-c5cccc6cccc(Cl)c56)ncc24)C3)O1 [Compound 2] | – | – | – | – | – | – | – | – | the R enantiomer was more reactive toward K-Ras(G12D)·GDP | 1.7 | – | – |
| C[C@@H]1C(=O)O[C@H]1C(=O)N1[C@@H]2CC[C@H]1CN(c1nc(OCC34CCCN3CCC4)nc3c(F)c(-c4cccc5cccc(Cl)c45)ncc13)C2 [Compound 3] | – | – | – | – | – | – | – | – | – | 2.5 | – | – |
| CN1CCC[C@@H]1COc1nc2c(c(N3CCC4(CC3)CN(S(=O)(=O)O)C4=O)n1)CCN(c1cccc3cccc(Cl)c13)C2 [Compound 12-087] | – | – | 0 | 0 | 0 | 0 | 0 | – | – | – | – | – |
| CN1CCC[C@@H]1COc1nc2c(c(N3CCC4(CC3)COC4=O)n1)CCN(c1cccc3cccc(Cl)c13)C2 [Compound 13-005] | – | – | 73.7 | 73.7 | 72.1 | 75.7 | 72.6 | – | – | – | – | – |
| CN1CCC[C@@H]1COc1nc2c(c(N3CCC4(CC3)CC(=O)O4)n1)CCN(c1cccc3cccc(Cl)c13)C2 [Compound 13-006] | – | – | 0 | 0 | 0 | 0 | 0 | – | – | – | – | – |
| O=C1OCC12CCN(c1nc(OCC34CCCN3CCC4)nc3c1CCN(c1cccc4cccc(Cl)c14)C3)CC2 [Compound 13-018] | – | – | 85.8 | 85.8 | 92.8 | 87.8 | 75.1 | – | – | – | – | – |
| O=C1OCC12CCN(c1nc(OCC34CCCN3CCC4)nc3c(F)c(-c4cccc5cccc(Cl)c45)ncc13)CC2 [Compound 13-037] | – | – | 0 | 0 | 42.5 | 0 | 0 | – | – | – | – | – |
| N#CC[C@H]1CN(c2nc(OCC34CCCN3CCC4)nc3c(F)c(-c4cccc5cccc(Cl)c45)ncc23)CCN1C(=O)C1CC(=O)O1 (stereo partly drawn) [Compound 14-005] | – | – | 0 | 0 | 100 | 100 | 38.0 | – | – | – | stabilized K-Ras(G12D)·GDP | stabilized K-Ras(G12D)·GppNHp |
| O=C1CC(C(=O)N2[C@@H]3CC[C@H]2CN(c2nc(OCC45CCCN4CCC5)nc4c(F)c(-c5cccc6cccc(Cl)c56)ncc24)C3)O1 (stereo partly drawn) [Compound 14-036] | – | – | 22.0 | 22.0 | 42.0 | 100 | 42.0 | – | – | – | – | – |
